The values that follow come from publication PMC4102788, “Linking off-target kinase pharmacology to the differential cellular effects observed among PARP inhibitors” (Oncotarget, 2014).

In one series the target is T1, human HIPK2 kinase (Homo sapiens, UniProt Q9H2X6).
T1 construct: purchased Cerep (CRO that ran the assay) 2915 (781-H2)
As to the kind of experiment: Human HIPK2 kinase in vitro inhibition assay (Cerep, LANCE). It is filed as biochemical. The settings on record: human recombinant enzyme, 10 µM ATP. The text has this:
(§1) Rucaparib, veliparib and olaparib were purchased from Selleckchem. Kinase in vitro assays were perfomed at Cerep (www.cerep.fr) by measuring the phosphorylation of appropriate peptide substrates by human recombinant enzymes and using FRET as a detection method (a detailed description of each kinase assay is available in online supplementary data).
Human HIPK2 kinase in vitro inhibition assay
All details for the HIPK2 in vitro assay can be consulted in the Cerep Catalogue available online under references 2915 (781-H2): http://www.cerep.fr/cerep/users/pages/catalog/Affiche_CondExp_Test.asp?test=2915 Evaluation of the effects of compounds on the activity of the human HIPK2 quantified by measuring the phosphorylation of the substrate Ulight- […]
-amide (MBP) using a human recombinant enzyme and the […]
mixture is incubated for 30 min at room temperature. […] After 60 more min, the fluorescence transfer is measured at λex=337 nm, λem=620 nm and λem=665 nm using a microplate reader (Envision, Perkin Elmer). The enzyme activity is determined by dividing the signal measured at λem=665 nm by that measured at λem=620 nm (ratio). The results are expressed as a percent inhibition of the control enzyme activity. […]
Background: In TR-FRET formats the signal depends on donor and acceptor labels being close together.

A further series deals with T2, human ALK kinase (Homo sapiens, UniProt Q9UM73).
T2 construct: purchased Cerep (CRO that ran the assay) 2678 (768-alk)
T2 sequence (Q9UM73 19-1620): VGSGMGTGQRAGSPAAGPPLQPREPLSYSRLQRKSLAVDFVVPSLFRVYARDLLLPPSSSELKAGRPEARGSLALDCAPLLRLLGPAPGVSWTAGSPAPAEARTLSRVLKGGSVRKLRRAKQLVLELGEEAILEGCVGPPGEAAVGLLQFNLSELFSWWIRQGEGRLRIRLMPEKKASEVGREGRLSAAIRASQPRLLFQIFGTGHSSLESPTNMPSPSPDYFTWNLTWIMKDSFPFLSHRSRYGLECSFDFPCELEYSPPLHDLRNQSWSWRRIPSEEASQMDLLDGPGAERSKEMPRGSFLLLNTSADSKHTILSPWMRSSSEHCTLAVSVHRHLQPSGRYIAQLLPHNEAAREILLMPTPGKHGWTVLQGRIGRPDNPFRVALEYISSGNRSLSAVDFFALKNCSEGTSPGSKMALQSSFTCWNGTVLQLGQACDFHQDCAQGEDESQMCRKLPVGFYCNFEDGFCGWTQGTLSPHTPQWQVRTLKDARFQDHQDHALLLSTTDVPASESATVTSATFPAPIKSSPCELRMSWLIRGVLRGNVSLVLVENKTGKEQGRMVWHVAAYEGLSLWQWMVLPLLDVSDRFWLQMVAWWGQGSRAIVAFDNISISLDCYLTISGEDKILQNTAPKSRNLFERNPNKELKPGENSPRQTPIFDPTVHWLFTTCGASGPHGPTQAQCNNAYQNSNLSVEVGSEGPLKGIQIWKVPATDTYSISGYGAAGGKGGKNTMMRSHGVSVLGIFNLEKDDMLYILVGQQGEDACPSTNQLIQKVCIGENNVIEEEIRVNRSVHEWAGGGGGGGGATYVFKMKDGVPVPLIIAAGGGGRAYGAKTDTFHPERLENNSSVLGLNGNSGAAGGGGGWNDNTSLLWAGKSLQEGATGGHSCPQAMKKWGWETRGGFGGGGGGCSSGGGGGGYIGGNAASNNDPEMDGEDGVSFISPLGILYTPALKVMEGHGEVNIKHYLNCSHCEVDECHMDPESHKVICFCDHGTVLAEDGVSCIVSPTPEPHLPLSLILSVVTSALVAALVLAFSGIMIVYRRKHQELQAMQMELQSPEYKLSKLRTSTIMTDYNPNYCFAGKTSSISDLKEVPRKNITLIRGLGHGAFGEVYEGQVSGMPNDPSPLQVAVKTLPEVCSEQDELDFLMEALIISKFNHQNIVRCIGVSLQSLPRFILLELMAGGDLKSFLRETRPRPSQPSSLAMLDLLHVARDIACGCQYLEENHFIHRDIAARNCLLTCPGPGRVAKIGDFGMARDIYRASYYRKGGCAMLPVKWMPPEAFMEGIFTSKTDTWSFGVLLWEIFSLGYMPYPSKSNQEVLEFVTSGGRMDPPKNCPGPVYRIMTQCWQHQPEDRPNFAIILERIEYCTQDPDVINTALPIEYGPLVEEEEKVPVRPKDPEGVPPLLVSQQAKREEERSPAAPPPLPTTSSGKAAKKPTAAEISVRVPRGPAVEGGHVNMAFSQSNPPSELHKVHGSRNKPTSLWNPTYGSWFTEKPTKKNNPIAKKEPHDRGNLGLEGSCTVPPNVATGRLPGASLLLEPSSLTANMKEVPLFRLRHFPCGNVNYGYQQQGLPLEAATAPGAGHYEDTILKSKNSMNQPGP
Kind of series: Human ALK kinase in vitro inhibition assay (Cerep, LANCE). The settings on record: human recombinant enzyme, 10 µM ATP. It is filed as biochemical.
Description: as §1
Human CDC7 kinase in vitro inhibition assay
All details for the CDC7 in vitro assay can be consulted in the Cerep Catalogue available online under references 2764 (749-cdc7): […]
http://www.cerep.fr/cerep/users/pages/catalog/Affiche_CondExp_Test.asp?test=2764 Evaluation of the effects of compounds on the activity of the human CDC7/ASK quantified by measuring the phosphorylation of the substrate […]
Ulight-[…] […]
labeled with europium chelate is added. After 60 more min, the fluorescence transfer is measured at λex=337 nm, λem=620 nm and λem=665 nm using a microplate reader (Envision, Perkin Elmer). The enzyme activity is determined by dividing the signal measured at λem=665 nm by that measured at λem=620 nm (ratio). The results are expressed as a percent inhibition of the control enzyme activity. […]
ALK quantified by measuring the phosphorylation of the substrate Ulight- […]
europium chelate is added. After 60 more min, the fluorescence transfer is measured at […]
λex=337 nm, λem=620 nm and λem=665 nm using a microplate reader (Envision, […]

For series [1] the following is noted: 40 mg single daily dose; cited from earlier work.

T1 sequence (Q9H2X6 whole entry): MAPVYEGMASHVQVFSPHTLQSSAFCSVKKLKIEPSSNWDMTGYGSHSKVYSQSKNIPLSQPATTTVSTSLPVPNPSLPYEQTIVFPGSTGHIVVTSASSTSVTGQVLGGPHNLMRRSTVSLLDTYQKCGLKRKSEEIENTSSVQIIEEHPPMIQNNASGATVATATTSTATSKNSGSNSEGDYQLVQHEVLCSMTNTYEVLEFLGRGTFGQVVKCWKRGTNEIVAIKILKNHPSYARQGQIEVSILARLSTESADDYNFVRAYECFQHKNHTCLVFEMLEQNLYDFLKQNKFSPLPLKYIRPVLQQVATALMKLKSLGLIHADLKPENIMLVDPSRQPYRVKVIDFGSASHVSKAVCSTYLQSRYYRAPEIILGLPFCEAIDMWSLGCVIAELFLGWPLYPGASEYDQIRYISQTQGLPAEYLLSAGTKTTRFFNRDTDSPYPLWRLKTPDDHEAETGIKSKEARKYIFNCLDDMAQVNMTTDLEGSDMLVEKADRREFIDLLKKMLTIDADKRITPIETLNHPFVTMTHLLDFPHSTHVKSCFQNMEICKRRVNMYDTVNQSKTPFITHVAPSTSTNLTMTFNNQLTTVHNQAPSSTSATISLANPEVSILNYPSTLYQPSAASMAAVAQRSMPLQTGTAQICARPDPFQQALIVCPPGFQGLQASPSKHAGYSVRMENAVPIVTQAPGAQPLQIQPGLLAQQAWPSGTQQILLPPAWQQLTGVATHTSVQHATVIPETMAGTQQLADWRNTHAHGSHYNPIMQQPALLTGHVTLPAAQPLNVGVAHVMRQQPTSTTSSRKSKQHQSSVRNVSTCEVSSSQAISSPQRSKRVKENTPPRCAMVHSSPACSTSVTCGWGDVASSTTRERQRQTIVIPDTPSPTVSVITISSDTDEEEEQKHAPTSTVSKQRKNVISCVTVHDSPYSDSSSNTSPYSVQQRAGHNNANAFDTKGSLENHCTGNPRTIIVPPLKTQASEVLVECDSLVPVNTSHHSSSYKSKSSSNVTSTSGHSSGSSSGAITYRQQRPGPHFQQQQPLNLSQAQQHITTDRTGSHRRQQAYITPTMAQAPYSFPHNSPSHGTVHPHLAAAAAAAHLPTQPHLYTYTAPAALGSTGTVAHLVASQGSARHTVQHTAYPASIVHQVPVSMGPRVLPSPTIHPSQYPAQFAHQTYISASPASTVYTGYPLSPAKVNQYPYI

Turning to `CNCc1ccc(-c2[nH]c3cc(F)cc4c3c2CCNC4=O)cc1` [rucaparib], the concentration for half-maximal inhibition (IC50) (in general, the concentration that inhibits the measured activity by half) turned out to be 4.4 µM on human HIPK2 kinase and 18 µM on human ALK kinase. In addition, the “highest peak plasma concentration” value in series [1] is “around 2 µM”.
